Laboratory results published in US20230285556A1, “METHODS AND COMPOSITIONS FOR TREATING CANCER” (Omeros Corporation, priority 2021, published 2023).

Assays:
Type in all cases: cell-based
OT-I mouse CD8 T cells = test: Example 1: OT-I CD8 T cell 10-day expansion with inhibitors, IL-2 after restimulation with EG7 cells; conditions: 10-day expansion with IL-7+IL-15; 300 nM Compound #10, 100 nM ZM-241385; restimulated with EG7 cells without inhibitors, 6 hours
Procedure: Purified OT-I mouse CD8 T cells (StemCell mouse CD8 T cell purification kit) were cultured in 24-well plates with C57BL/6 mouse splenocytes (pre-treated with mitomycin C to prevent growth) and pOVA according to the following condition per well: • 2 mL RP10 media (RPMI, 10% fetal calf serum, 6 mM L-Glutamine, 12.5 mM HEPES, 50 μM 2-mercaptoethanol, Penicillin, Streptomycin) • 0.2 million OT-I CD8 T cells • 1.4 million mitomycin C treated splenocytes • 100 nM pOVA
and the following individual conditions: • 1. DMSO vehicle control • 2. 300 nM GPR174 inhibitor Compound #10 • 3.
On day 3, cultures were split 1:4 with new media, the inhibitors were added back to original conditions, and mouse IL-7 and mouse IL-15 were added to 10 ng/mL. On days 5 and 8, cells were washed once, counted, and replated at 0.5 million per well with IL-7 and IL-15 and the original inhibitor conditions. On day 10, cells were counted, washed twice with 12 mL RP10, and restimulated in quadruplicate with EG7 cells (H-2 K^b thymoma expressing OVA) in 96-well round bottom plates according to the following conditions: • 0.2 mL RP10; • 0.1 million OT-I T cells from each T cell expansion condition; and • 0.5 million EG7 cells.
Supernatants were collected after 6 hours and assayed for IL-2 levels (MesoScale Discovery platform).

human CD8 T cells [1] = test: Example 2: human CD8 T cell 10-day expansion with IL-2 and inhibitors, IL-2 after CD3/CD28 restimulation; conditions: 300 nM Compound #10, 100 nM ZM-241385, CD3/CD28 bead restimulation 7 hours
Procedure: (§1) Purified human CD8 T cells were cultured in 24-well plates according to the following conditions per well: • 1 mL X-VIVO™ 15 media (Lonza) • 1 million human CD8 T cells • 2 million Human T-Activator CD3/CD28 Dynabeads® (ThermoFisher)
(§2) and the following individual conditions: • 1. DMSO vehicle control • 2. […] 300 nM GPR174 inhibitor Compound #10 • 4.
(§3) On days 4 and 7, cultures were washed and seeded at 0.5 million cells per well with the same GPR174 and A2A inhibitor conditions, and with 100 U/mL human IL-2.
After 7 hours of culture, supernatants were harvested and analyzed for IL-2 (MesoScale Discovery).

human CD8 T cells [2] = test: Example 2: flow cytometry phenotype clusters (FlowSOM) of expanded human CD8 T cells; conditions: 10-day culture; relative to vehicle control
Procedure: as §1, §2, §3
In addition to restimulation, expanded T cells were characterized by flow cytometry to evaluate expression of CCR7, CD39, CD69, TIGIT, CD45RA, LAG3, T-BET. The following detection reagents were used: anti-CD8 BV510, anti-CCR7 PE-Cy7, anti-CD39 BV605, anti-CD69 BV421, anti-TIGIT eFluor450, anti-CD45RA BV750, anti-LAG3 APC-Cy7, anti-T-BET PE-dazzle594 (all from Biolegend, Invitrogen, or BD Biosciences), and LIVE/DEAD™ Fixable Green Dead Cell Stain (ThermoFisher).
Data was collected with a Cytek Northern Lights flow cytometer, and was analyzed in FlowJo, in which automated clustering was performed on a concatenated file (containing all 4 culture conditions) with the FlowSOM plugin to generate 16 clusters. The abundance of each cluster in each cell sample was exported using the Cluster Explorer plugin.

human CD8 T cells [3] = test: Example 3: human CD8 T cell 10-day expansion with IL-7+IL-15 and inhibitors, IL-2 after restimulation; conditions: for IL-2 production following restimulation, fold vs vehicle control (FIG. 4): 300 nM Compound #10, 100 nM ZM-241385, 18 hours restimulation; for IL-2 production following restimulation, fold vs vehicle (FIG. 5): 300 nM Compound #10, 500 nM Compound #49, 100 nM ZM-241385, 18 hours restimulation
Procedure: (§4) Purified human CD8 T cells were cultured in 24-well plates with the following conditions per well: • 2 mL X-VIVO™ 15 media (Lonza) • 1 million human CD8 T cells • 2 million Human T-Activator CD3/CD28 Dynabeads® (ThermoFisher) • 10 ng/mL human IL-7 (R&D Systems) • 10 ng/mL human IL-15 (R&D Systems)
and the following individual conditions for FIG. 4: • 1. DMSO vehicle control • 2. […] 300 nM GPR174 inhibitor Compound #10 • 4.
On days 4 and 7 (FIG. 4) or days 3, 5, and 7 (FIG. 5), cultures were washed and seeded at 0.5 cells million per well with the same GPR174 and A2A inhibitor conditions, and with 10 ng/mL IL-7 and 10 ng/mL IL-15.
After 18 hours of culture, supernatants were harvested and analyzed for IL-2 (MesoScale Discovery).

human CD8 T cells [4] = test: Example 4: human CD8 T cell expansion with GPR174, A2A, PKA or EPAC inhibitors, IL-2 after restimulation; conditions: for IL-2 production following restimulation, fold increase vs vehicle (FIG. 6): 300 nM Compound #10, 100 nM ZM-241385, 500 μM Rp-8-Br-cAMPS, 5 μM ESI-09, 5.5 hours restimulation
Procedure: as §4, with “(Lonza) • 0.4 million human” for “(Lonza) • 1 million human”, “T cells (Donor A) • 2” for “T cells • 2”
and the following individual conditions, ±300 nM Compound #10: • 1. DMSO vehicle control • 2. […] 500 μM Rp-8-Br-cAMPS • 4. 5 μM ESI-09
On days 3, 5, and 7, cultures were washed and seeded at 0.5 cells million per well with the same small molecule inhibitor conditions, and with IL-7 and IL-15.
After 5.5 hours of culture, supernatants were harvested and analyzed for IL-2 content (MesoScale Discovery).

`CC1CCN(c2cc(N3CCN(S(=O)(=O)c4ccccc4)CC3)c([N+](=O)[O-])cc2F)CC1` [Compound 10] was tested, and the “IL-2 production following restimulation, fold above Vehicle” value (OT-I mouse CD8 T cells) was 1.8 fold, the “IL-2 production upon restimulation, fold increase vs vehicle” value (human CD8 T cells [1]) was 1.7 fold and the “T cell phenotype clusters enriched or reduced (CD39, CD69, TIGIT, T-BET, LAG3, CCR7, CD45RA)” value (human CD8 T cells [2]) was “displayed this same trend, albeit to a lesser degree”. The “IL-2 production following restimulation, fold vs vehicle control (FIG. 4)” value (human CD8 T cells [3]) was 3 fold, the “IL-2 production following restimulation, fold vs vehicle (FIG. 5)” value (human CD8 T cells [3]) was “approximately 1.3 fold” and the “IL-2 production following restimulation, fold increase vs vehicle (FIG. 6)” value (human CD8 T cells [4]) was “negligible effect”. The “IL-2 production following restimulation, effect in the presence of Rp-8-Br-cAMPS (FIG. 6)” value (human CD8 T cells [4]; 300 nM Compound #10 added to 500 μM Rp-8-Br-cAMPS) was “did not enhance IL-2 production”.
With `Nc1nc(NCCc2ccc(O)cc2)nc2nc(-c3ccco3)nn12` [ZM-241385, ZM 241385] the “IL-2 production upon restimulation, fold increase vs vehicle” value (human CD8 T cells [1]) was “did not alter IL-2 production”, the “T cell phenotype clusters enriched or reduced (CD39, CD69, TIGIT, T-BET, LAG3, CCR7, CD45RA)” value (human CD8 T cells [2]) was “relatively unchanged” and the “IL-2 production following restimulation, fold vs vehicle control (FIG. 4)” value (human CD8 T cells [3]) was “negligible”. The “IL-2 production following restimulation, fold vs vehicle (FIG. 5)” value (human CD8 T cells [3]) was “approximately 1.3 fold” and the “IL-2 production following restimulation, fold increase vs vehicle (FIG. 6)” value (human CD8 T cells [4]) was “negligible effect”.
